Test results reported in article PMC7555349, “1,4-Disubstituted-1,2,3-Triazole Compounds Induce Ultrastructural Alterations in Leishmania amazonensis Promastigote: An in Vitro Antileishmanial and in Silico Pharmacokinetic Study” (International Journal of Molecular Sciences, 2020).
Like-named read-outs stand apart in the source and are kept apart here.

Assays:
[1] = test system: Leishmania amazonensis promastigote; assay: Activity against promastigote forms (MTT); type: cell-based; settings: for IC50: read-out: IC50 Promastigote
Method: Leishmania amazonensis (MHOM/BR/76/MA-76) promastigote forms of were cultured at 26 °C in Schneider’s Insect medium added with 10% fetal bovine sera (FBS), 100 U/mL of penicillin and 100 µg/mL of streptomycin. Parasite cultures with a maximum of seven in vitro passages were used. […] Blanks composed by wells without parasites and wells with parasites plus DMSO 1% only were used as controls. A modified colorimetric method with tetrazolium-dye MTT was used to evaluate parasite viability. A quantity of 10 µL of MTT (5 mg/mL) was added to each well. After five hours, 150 µL of DMSO was added to each well to dissolve the formazan crystals. Absorbance was read on a spectrophotometer at a wavelength of 570 nm. The data was normalized and the results were used to calculate the IC50 (50% inhibition of parasite growth). Miltefosine was used as a reference drug.

Cytotoxicity assay (MTT) = type: cell-based, BALB/c mice; settings: mouse
Method: The peritoneal macrophages were obtained from BALB/c mice elicited with 3 mL Brewer thioglycollate medium for 72 h, intraperitoneal. After euthanasia, cells were obtained by peritoneal washing with PBS, centrifuged at 4000 rpm for 5 min, and suspended in RPMI 1640 medium plus 10% FBS, 100 U/mL of penicillin and 100 µg/mL of streptomycin [50]. The cells were immediately used in experiments and maintained at 37 °C and 5% CO2.
Blanks were composed by wells without cells and wells with cells plus 1% of DMSO only. Cell viability was carried out by the modified MTT colorimetric method as described before. Tem microliters of MTT at 5 mg/mL was added to each well and incubated for two hours at 37 °C and 5% CO2. The plate was then centrifuged for five minutes at 1500 rpm, the supernatants were removed and the formazan crystals solubilized with 100 μL of DMSO in a shaker-plate for 10 min. The absorbance was determined in a spectrophotometer at a wavelength of 570 nm.

[2] = test system: Leishmania amazonensis intracellular amastigotes; assay: Activity against intracellular amastigote in infected peritoneal macrophages, and selectivity index; type: cell-based; settings: for amastigotes per infected cell / number of amastigotes per 200 cells / parameters of infection (amastigotes per 200 cells, percentage of infected cells, amastigotes per infected cell): compared with untreated infected cells; for IC50: Leishmania amazonensis, Peritoneal macrophage, in Mus musculus, read-out: IC50 Intracellular Amastigote; for SI (selectivity index): ratio of CC50 versus the IC50 for intracellular amastigotes
Method: Activity against the intracellular amastigotes was carried out in 24-well plates with coverslips with peritoneal macrophages (5 × 10^5 cells/well). Cells were infected with L. amazonensis promastigote forms using a ratio of 10:1 parasite/cell. After 6 h after infection the cells were washed three times with PBS to remove non-internalized parasites. […] The infected and treated cells adhered to the coverslips were fixed with Bouin, stained with Giemsa’s azur-eosin-methylene blue and examined by light microscopy. […] The percentage of infected cells was determined by number of infected cells divided by two. […] The selectivity index was calculated from the ratio of CC50 versus the IC50 for intracellular amastigotes.

[3] = test system: Leishmania amazonensis promastigotes; assay: Transmission electron microscopy of treated promastigotes; type: cell-based; settings: 24 h of treatment at IC50
Method: The parasites were fixed with 2.5% glutaraldehyde in a 0.1 M sodium-cacodylate buffer, pH 7.2 overnight. Then, parasites were washed three times with 0.1 M sodium-cacodylate buffer, post-fixed in a solution composed by 1% osmium tetroxide, 0.8% potassium ferrocyanide, and 5 mM calcium chloride, dehydrated in graded acetone and embedded in EPON 812.

[4] = test system: BALB/c peritoneal macrophages; assay: Nitrite quantification (Griess) in supernatant of macrophages stimulated with L. amazonensis; type: cell-based, BALB/c mice; settings: compound at 18.7 μM, 48 h
Method: BALB/c peritoneal macrophages at 5 × 10^6 cells/mL were stimulated with L. amazonensis promastigotes (10:1 parasites:cell) for one hour, and treated with different concentrations of triazole compounds for 48 h. Nitrite quantification of the supernatant of the cells was performed with Griess reagent. […] The nitrite concentrations were obtained from the standard curve of sodium nitrite (100 to 0.3 μM).

[5] = L. amazonensis promastigotes, 24 h of treatment per table title, MTT
[6] = Leishmania amazonensis, 24 h, L. amazonensis promastigotes, 24 h of treatment per table title, MTT
[7] = BALB/c peritoneal macrophages, 24 h of treatment, MTT, read-out: CC50
[8] = L. amazonensis in BALB/c peritoneal macrophages, 24 h of treatment

SMILES | IC50 [1, 6] | IC50 [1, 5] | CC50 at 24 h (Cytotoxicity assay (MTT); [7]) | number of amastigotes per 200 cells ([2]; 37.5 μM, 24 h) | parameters of infection (amastigotes per 200 cells, percentage of infected cells, amastigotes per infected cell) ([2]; 37.5 μM, 24 h) | IC50 [2, 8] | SI (selectivity index) [2] | ultrastructural alterations in promastigotes [3] | other results
C(=N\Nc1ccccc1)/c1ccccc1-n1cc(COc2ccccc2)nn1 [Compound 6] | ~15 µM | 14.6 ± 4.39 µM | 547.9 ± 3.26 µM | remarkable reduction | altered all the three parameters of infection | 17.8 ± 3.26 µM | 30.81 | lipid corpuscles (white arrows) (Figure 7A), large vacuoles containing electron-dense material | amastigotes per infected cell ([2]; 18.7 μM, 24 h): still able to reduce; number of amastigotes per 200 cells ([2]; 18.7 μM, 24 h): still able to reduce; nitrite level relative to untreated infected macrophages [4]: 2.3 fold
Cc1ccc(S(=O)(=O)N/N=C/c2ccccc2-n2cc(COc3ccccc3)nn2)cc1 [Compound 5] | < 10 µM | 8.81 ± 3.93 µM | 58 ± 2.65 µM |  | reduced all the three parameters of infection | 32.3 ± 2.26 µM | 1.79 | lipid corpuscles (white arrows) (Figure 6A), extension of the kinetoplast containing granular material | 
CCCCCCCCCCCCCCCCOP(=O)([O-])OCC[N+](C)(C)C [Miltefosine, miltefosine, reference compound] |  |  |  |  |  |  |  |  | IC50 ([1]; Leishmania amazonensis, 24 h): 8.56 ± 0.695 µM; parameters of infection (amastigotes per 200 cells, percentage of infected cells, amastigotes per infected cell) ([2]; 25 and 12.5 μM, 24 h): reduction of all three parameters of infection; IC50 ([2]; 24 h): 11.6 ± 1.79 µM; CC50 at 24 h (Cytotoxicity assay (MTT); BALB/c): 153 ± 3.85 µM
C#CCOc1cccc(OCc2cn(-c3ccccc3C=O)nn2)c1 [Compound 4] | ~15 µM | 15.7 ± 5.42 µM | 145 ± 4.1 µM | statistically decreased | did not significantly alter the other parameters of infection | 150 ± 6.37 µM | 0.96 | swelling of the kinetoplast and a change in chromatin distribution | increase in IC50 value against intracellular amastigote compared to promastigote forms [2]: 9.5 fold
O=Cc1ccccc1-n1cc(COc2cccc(OCc3cn(-c4ccccc4C=O)nn3)c2)nn1 [Compound 2] | < 10 µM | 8.85 ± 3.44 µM | 248 ± 2.52 µM | decreased |  | 37.9 ± 3.35 µM | 6.55 | increase in lipid corpuscles (white arrows), electron dense vesicles inside small vacuoles in the cytoplasm | amastigotes per infected cell ([2]; 37.5 μM, 24 h): decreased

Continued, in another order:

IC50 [1, 6] | SMILES | IC50 [1, 5] | CC50 at 24 h (Cytotoxicity assay (MTT); [7]) | number of amastigotes per 200 cells ([2]; 37.5 μM, 24 h) | parameters of infection (amastigotes per 200 cells, percentage of infected cells, amastigotes per infected cell) ([2]; 37.5 μM, 24 h) | IC50 [2, 8] | SI (selectivity index) [2] | ultrastructural alterations in promastigotes [3] | other results
> 50 µM | O=Cc1ccccc1-n1cc(-c2ccccc2)nn1 [Compound 7] | 63 ± 5.88 µM | 412 ± 4.92 µM |  |  |  |  |  | 
> 300 µM | OCc1ccccc1-n1cc(COc2ccccc2)nn1 [Compound 8] |  | > 600 µM |  |  |  |  |  | IC50 Promastigote [1, 5]: did not exhibit any such activity even at the maximum analyzed concentration
> 50 µM | O=Cc1ccccc1-n1cc(COc2cccc(O)c2)nn1 [Compound 3] | 50.9 ± 4.57 µM | 308 ± 4.07 µM |  |  |  |  |  | 
> 300 µM | O=c1ccc2cc(-n3cc(COc4ccccc4)nn3)ccc2o1 [Compound 10] |  | > 600 µM |  |  |  |  |  | IC50 Promastigote [1, 5]: did not exhibit any such activity even at the maximum analyzed concentration
> 50 µM | O=Cc1ccccc1-n1cc(COc2ccccc2)nn1 [Compound 1] | 53.7 ± 8.47 µM | 221 ± 4.82 µM |  |  |  |  |  | 
